From patent US8343978B2, “Fast onset orodispersable tablets” (Adds Pharmaceuticals LLC, priority 2008, dated 2013)
“Also recorded” adds a separate entry of the source.

Experiments:
[1] = Cloud point (LCST) measurement by spectrophotometry, light transmission at 750 nm; format: physicochemical; settings: 2 wt % hydroxypropylcellulose; for Effect of modifier on the LCST of hydroxypropylcellulose (Klucel EF): 0.2M sodium citrate, 0.2M magnesium sulfate, 0.2M potassium phosphate monobasic, 0.02M calcium sulfate, 1M mannitol, 1M xylitol
Source text: The critical solution temperature of a polymer can be measured by spectrophotometry, by differential scanning calorimetry, or by nuclear magnetic resonance spectroscopy. For example, the spectrophotometrical method can be used to measure the cloud point of an LCST polymer. “Cloud point” generally refers to the temperature where the polymer solution in an aqueous medium becomes cloudy, indicating initiation of precipitation or flocculation of the polymer. The spectrophotometical method, as described as follows, can be adopted to screen various combinations of LCST polymers and modifiers to determine whether a modifier is capable of reducing the LCST of a polymer to about 37° C. or lower.
An LCST polymer is dissolved in distilled water and, optionally, separate solutions of LCST modifiers at various concentrations. Each polymer or polymer/modifier test solution is placed in a separate container, such as a bottle or a beaker, and each container is placed in a water bath. The water bath is equipped with a temperature regulator, and the temperature of the bath is set at approximately 60° C. (the temperature of the bath can start at a high temperature or, alternatively, the temperature of the water bath can start low and be increased gradually at a rate of, e.g., 1° C./min). While in the water bath, each test solution is circulated through a 1-cm flowthrough quartz cuvette using a peristaltic pump (Masterflex) at a flow rate of 50 ml/min. The temperature of the test solution is monitored using a thermocouple, the lead of which is inserted into the test solution in the container. Alternatively, the lead of the thermocouple can be inserted into the cuvette through tubing connecting the container and the cuvette. The light transmission (T %) of each solution is measured spectrophotometrically with a UV spectrophotometer at a wavelength of 750 nm. Initially, spectrophotometric measurements are taken at 2-3° C. intervals. Near the cloud point of a particular polymer or polymer/modifier combination, spectrophotometric measurements are taken more frequently (e.g., at 1 ° C. intervals). The cloud point is ascertained as the temperature at which the light transmission is 90% of the transmission at room temperature.

[2] = Tablet disintegration time in deionized water at 37° C., disintegration tester; format: physicochemical; settings: 500 mg tablets, 1.3 cm diameter; 300 ml DI water at 37° C., 200 rpm paddle; n=3
Method: To compare the cohesive properties of the modifiers tested in Example 2, tablets containing 95 wt % of each potential LSCT modifier and 5 wt % of cross-linked sodium carboxylmethylcellulose (Croscarmellose sodium) were tested for their average disintegration time in aqueous medium using a disintegration tester (LIJ-2, Vanguard Pharmaceutical Machinery, Inc. USA). The potential LCST modifier and Croscarmellose sodium were dry-blended in a vial and 500 mg of each blend were compressed under 1 metric ton of compression pressure using a 1.3 cm diameter rounding tool. The resulting tablets were placed into 300 ml of deionized (DI) water (at 37° C., agitated using a 200 rpm paddle) and the disintegration times of the tablets (i.e., the time that it took for each tablet to completely dissolve) were measured. Disintegration times were measured for three tablets of each modifier and average disintegration rates and standard deviates were determined. […]
An orally disintegrating placebo tablet comprising hydroxypropylcellulose as the LCST polymer and calcium sulfate as the modifier was manufactured as follows. […] The mean disintegration time of the tablets (n=3) was 35 seconds, with standard deviation of 4 seconds, as measured in de-ionized water at 37° C. using a disintegration tester (LIJ-2, Vanguard Pharmaceutical Machinery, Inc. USA). […]

Compound | Effect of modifier on the LCST of hydroxypropylcellulose (Klucel EF) [1] | Effect of modifier on the LCST of hydroxypropylcellulose (Klucel EF) ([1]; listed as potassium phosphate (monobasic)) | Disintegration time of tablets of 95 wt % modifier and 5 wt % Croscarmellose sodium [2] | Effect of electrolyte modifier on the LCST of hydroxypropylcellulose, compared at equal concentration ([1]; electrolytes at 0.02M)
O=P([O-])(O)O.[K+] [potassium phosphate monobasic] | capable of reducing the LCST of hydroxypropylcellulose | significantly reduce the LCST | one | 
O=S(=O)([O-])[O-].[Mg+2] [magnesium sulfate] | significantly reduce the LCST; also recorded: capable of reducing the LCST of hydroxypropylcellulose |  |  | 
O=S(=O)([O-])[O-].[Ca+2] [calcium sulfate] | significantly reduce the LCST; also recorded: capable of reducing the LCST of hydroxypropylcellulose |  | one | most effective reducer; also recorded: strongest effect on reducing the LCST
OC[C@@H](O)[C@@H](O)[C@H](O)[C@H](O)CO [mannitol] | significantly reduce the LCST; also recorded: capable of reducing the LCST of hydroxypropylcellulose |  |  | 
OC[C@@H](O)[C@H](O)[C@@H](O)CO [xylitol] | significantly reduce the LCST; also recorded: capable of reducing the LCST of hydroxypropylcellulose |  |  | 
O=C([O-])CC(O)(CC(=O)[O-])C(=O)[O-].[Na+].[Na+].[Na+] [sodium citrate] | significantly reduce the LCST; also recorded: capable of reducing the LCST of hydroxypropylcellulose |  |  | 
